Experiments:
[1] = biological target: T1, mutEGFR (D770_N771insSVD) (Homo sapiens, UniProt P00533, DUP768-770); assay: Exon20-Mutant-EGFR (D770_N771insSVD) kinase assay (TR-FRET); format: biochemical; conditions: mutEGFR (D770_N771insSVD) kinase assay IC50, Table 2a; D770_N771insSVD; 2 mM ATP
T1 construct: GST-EGFR #3 (SVD between D770 and N771); made in house; host or cells: Sf9 insect cells (baculovirus)

[2] = biological target: T2, mutEGFR (D770_N771insNPG, T790) (Homo sapiens, UniProt P00533, INS770NPG/T790M); assay: mutEGFR (D770_N771insNPG, T790) kinase assay; format: biochemical; conditions: Table 2a, D770_N771insNPG
T2 construct: exact insNPG construct not described; in-house EGFR proteins were N-terminal GST fusions from baculovirus/insect cells (borders R669-A1210 given only for WT, insSVD, insASV)
T2 sequence (P00533 with tags, fused parts or gaps INS770NPG/T790M limits assumed): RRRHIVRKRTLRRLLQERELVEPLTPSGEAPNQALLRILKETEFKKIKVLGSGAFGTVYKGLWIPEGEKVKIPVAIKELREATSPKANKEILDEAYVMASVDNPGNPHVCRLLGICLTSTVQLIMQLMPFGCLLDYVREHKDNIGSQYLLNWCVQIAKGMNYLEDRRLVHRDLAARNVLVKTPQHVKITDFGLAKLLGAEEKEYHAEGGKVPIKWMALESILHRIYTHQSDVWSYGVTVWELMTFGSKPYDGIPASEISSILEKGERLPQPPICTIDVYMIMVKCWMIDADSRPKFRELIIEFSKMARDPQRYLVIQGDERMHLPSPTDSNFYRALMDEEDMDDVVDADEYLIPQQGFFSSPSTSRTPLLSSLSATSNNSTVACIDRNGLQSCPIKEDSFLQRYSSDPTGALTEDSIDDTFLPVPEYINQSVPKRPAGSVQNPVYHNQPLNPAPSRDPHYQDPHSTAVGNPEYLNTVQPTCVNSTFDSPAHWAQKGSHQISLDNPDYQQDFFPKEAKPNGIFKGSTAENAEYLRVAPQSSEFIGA
Excerpt: The different EGFR proteins used in the biochemical kinase activity inhibition assays were generated inhouse by expression in insect cells using Baculo Virus system and subsequent purification as described in the following paragraphs.
The cDNAs encoding the various protein sequences from human EGFR human (P00533) were optimized for expression in eukaryotic cells and synthesized by the GeneArt Technology at Life Technologies.

BA/F3 (insSVD) cells = assay: Ba/F3-EGFR-insSVD cell survival assay (Cell Titer-Glo); format: cell-based; conditions: Mus musculus, BaF3, 48 h, Table 3a, cell survival, Cell Titer-Glo, with 10 ng/ml EGF, without IL-3
Procedure, shortened: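 Ba/F3 cells stably expressing retroviral EGFR-insSVD or insSVD T790M, grown without IL-3 on 10 ng/ml EGF, 4000 cells/well. Compound pinned in, 48 h at 37° C. Viability by CellTiter-Glo luminescence.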

T1 sequence (P00533 with tags, fused parts or gaps DUP768-770): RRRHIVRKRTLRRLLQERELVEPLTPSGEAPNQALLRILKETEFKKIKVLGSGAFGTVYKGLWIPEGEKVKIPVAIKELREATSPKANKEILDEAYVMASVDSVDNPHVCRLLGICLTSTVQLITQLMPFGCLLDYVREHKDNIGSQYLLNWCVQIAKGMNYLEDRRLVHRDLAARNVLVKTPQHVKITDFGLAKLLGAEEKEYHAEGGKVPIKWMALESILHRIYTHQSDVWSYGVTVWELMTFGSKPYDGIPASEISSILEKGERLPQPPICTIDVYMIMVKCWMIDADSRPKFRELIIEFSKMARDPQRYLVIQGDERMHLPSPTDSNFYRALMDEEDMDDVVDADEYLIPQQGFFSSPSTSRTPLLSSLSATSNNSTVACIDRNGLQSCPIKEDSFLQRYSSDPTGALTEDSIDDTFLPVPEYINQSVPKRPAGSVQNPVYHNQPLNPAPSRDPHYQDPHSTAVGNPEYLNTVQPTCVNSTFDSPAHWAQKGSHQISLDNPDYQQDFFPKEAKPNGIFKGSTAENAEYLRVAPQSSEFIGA

Row | IC50 [1] [µM] | IC50 [2] [µM] | Structure (SMILES) | IC50 (BA/F3 (insSVD) cells) [µM]
1 | 0.000245 | 0.000692 | COC1CCN(C/C=C/C(=O)N2CCn3nc(-c4ccc(Cl)cc4)c(-c4ccncc4)c3C2)CC1 [Example 168, (2E)-1-[2-(4-chlorophenyl)-3-(pyridin-4-yl)-6,7-dihydropyrazolo[1,5-a]pyrazin-5(4H)-yl]-4-(4-methoxypiperidin-1-yl) but-2-en-1-one] | 0.0637
2 | 0.00018 | 0.000385 | COCCN(C)C/C=C/C(=O)N1CCn2nc(-c3ccc(Cl)cc3)c(-c3ccncc3)c2C1 [Example 169, (2E)-1-[2-(4-chlorophenyl)-3-(pyridin-4-yl)-6,7-dihydropyrazolo[1,5-a]pyrazin-5(4H)-yl]-4-[(2-methoxyethyl)(methyl)amino]but-2-en-1-one] | 0.0669
3 | 0.000136 | 0.000406 | O=C(/C=C/CN1CCCC1)N1CCn2nc(-c3ccc(Cl)cc3)c(-c3ccncc3)c2C1 [Example 171, (2E)-1-[2-(4-chlorophenyl)-3-(pyridin-4-yl)-6,7-dihydropyrazolo[1,5-a]pyrazin-5(4H)-yl]-4-(pyrrolidin-1-yl)but-2-en-1-one] | 0.0337
4 | 0.000203 | 0.00121 | O=C(/C=C/CN1CC(F)C1)N1CCn2nc(-c3ccc(Cl)cc3)c(-c3ccncc3)c2C1 [Example 172, (2E)-1-[2-(4-chlorophenyl)-3-(pyridin-4-yl)-6,7-dihydropyrazolo[1,5-a]pyrazin-5(4H)-yl]-4-(3-fluoroazetidin-1-yl) but-2-en-1-one] | 0.0432
5 | 0.157 | 0.0255 | C=CC(=O)N1CCn2nc(-c3ccc(F)cc3)c(-c3ccnc4[nH]cc(C)c34)c2C1 [Example 173, 1-[2-(4-fluorophenyl)-3-(3-methyl-1H-pyrrolo[2,3-b]pyridin-4-yl)-6,7-dihydropyrazolo[1,5-a]pyrazin-5(4H)-yl]prop-2-en-1-one] | 0.0628
6 | 0.176 | 2.13 | C=CC(=O)N1CCn2nc(-c3ccc(C(F)(F)F)cc3F)c(-c3ccnc4[nH]cc(C)c34)c2C1 [Example 174, 1-(2-(2-fluoro-4-(trifluoromethyl)phenyl)-3-(3-methyl-1H-pyrrolo[2,3-b]pyridin-4-yl)-6,7-dihydropyrazolo[1,5-a]pyrazin-5(4H)-yl) prop-2-en-1-one] | 0.16
7 | 0.0976 | 0.0804 | C=CC(=O)N1CCn2nc(-c3ccc(Cl)cc3)c(-c3ccnc4[nH]cc(C)c34)c2C1 [Example 175, 1-[2-(4-chlorophenyl)-3-(3-methyl-1H-pyrrolo[2,3-b]pyridin-4-yl)-6,7-dihydropyrazolo[1,5-a]pyrazin-5(4H)-yl]prop-2-en-1-one] | 0.0635
8 | 0.0432 | 0.0178 | C=CC(=O)N1CCn2nc(-c3cccc(Cl)c3)c(-c3ccnc4[nH]cc(C)c34)c2C1 [Example 177, 1-[2-(3-chlorophenyl)-3-(3-methyl-1H-pyrrolo[2,3-b]pyridin-4-yl)-6,7-dihydropyrazolo[1,5-a]pyrazin-5(4H)-yl]prop-2-en-1-one] | 0.0587
9 | 0.438 | 0.36 | C=CC(=O)N1CCn2nc(-c3ccccc3Cl)c(-c3ccnc4[nH]cc(C)c34)c2C1 [Example 179, 1-[2-(2-chlorophenyl)-3-(3-methyl-1H-pyrrolo[2,3-b]pyridin-4-yl)-6,7-dihydropyrazolo[1,5-a]pyrazin-5(4H)-yl]prop-2-en-1-one] | 0.265
10 | 0.158 | 0.0615 | C=CC(=O)N1CCn2nc(-c3cc(Cl)ccc3F)c(-c3ccnc4[nH]cc(C)c34)c2C1 [Example 180, 1-[2-(5-chloro-2-fluorophenyl)-3-(3-methyl-1H-pyrrolo[2,3-b]pyridin-4-yl)-6,7-dihydropyrazolo[1,5-a]pyrazin-5(4H)-yl]prop-2-en-1-one] | 0.112
11 | 0.861 | 1.08 | C=CC(=O)N1CCn2nc(-c3ccc(C#N)cc3)c(-c3ccnc4[nH]cc(C)c34)c2C1 [Example 182, 4-[3-(3-methyl-1H-pyrrolo[2,3-b]pyridin-4-yl)-5-(prop-2-enoyl)-4,5,6,7-tetrahydropyrazolo[1,5-a]pyrazin-2-yl]benzonitrile] | 0.531
12 | 0.0968 | 0.217 | Cc1c[nH]c2nccc(-c3c(-c4ccc(Cl)cc4)nn4c3CN(C(=O)/C=C/CN(C)C)CC4)c12 [Example 183, (2E)-1-[2-(4-chlorophenyl)-3-(3-methyl-1H-pyrrolo[2,3-b]pyridin-4-yl)-6,7-dihydropyrazolo[1,5-a]pyrazin-5(4H)-yl]-4-(dimethylamino)but-2-en-1-one] | 0.0656
13 | 0.155 | 0.0528 | Cc1c[nH]c2nccc(-c3c(-c4cccc(Cl)c4)nn4c3CN(C(=O)/C=C/CN(C)C)CC4)c12 [Example 184, (2E)-1-[2-(3-chlorophenyl)-3-(3-methyl-1H-pyrrolo[2,3-b]pyridin-4-yl)-6,7-dihydropyrazolo[1,5-a]pyrazin-5(4H)-yl]-4-(dimethylamino)but-2-en-1-one] | 0.0566
14 | 0.21 | 0.129 | Cc1c[nH]c2nccc(-c3c(-c4cccc5ccoc45)nn4c3CN(C(=O)/C=C/CN(C)C)CC4)c12 [Example 186, (2E)-1-[2-(1-benzofuran-7-yl)-3-(3-methyl-1H-pyrrolo[2,3-b]pyridin-4-yl)-6,7-dihydropyrazolo[1,5-a]pyrazin-5(4H)-yl]-4-(dimethylamino)but-2-en-1-one formic acid (1:1)] | 0.557
15 | 0.155 | 0.0112 | C=CC(=O)N1CCn2nc(-c3ccc(C(F)(F)F)nc3)c(-c3ccncc3)c2C1 [Example 188, 1-[3-(pyridin-4-yl)-2-[6-(trifluoromethyl)pyridin-3-yl]-6,7-dihydropyrazolo[1,5-a]pyrazin-5(4H)-yl]prop-2-en-1-one] | 0.149
16 | 0.00102 | 0.00174 | C=CC(=O)N1CCn2nc(-c3ccccc3)c(-c3ccncc3)c2C1 [Example 189, 1-[2-phenyl-3-(pyridin-4-yl)-6,7-dihydropyrazolo[1,5-a]pyrazin-5(4H)-yl]prop-2-en-1-one] | 0.0223
17 | 0.00103 | 0.00303 | C=CC(=O)N1CCn2nc(-c3ccc(Cl)c(CC)c3)c(-c3ccncc3)c2C1 [Example 190, 1-[2-(4-chloro-3-ethylphenyl)-3-(pyridin-4-yl)-6,7-dihydropyrazolo[1,5-a]pyrazin-5(4H)-yl]prop-2-en-1-one] | 0.172
18 | 0.000626 | 0.00126 | C=CC(=O)N1CCn2nc(-c3ccc(Cl)cc3CO)c(-c3ccncc3)c2C1 [Example 191, 1-{2-[4-chloro-2-(hydroxymethyl)phenyl]-3-(pyridin-4-yl)-6,7-dihydropyrazolo[1,5-a]pyrazin-5(4H)-yl}prop-2-en-1-one] | 0.0329
19 | 0.000831 | 0.00285 | C=CC(=O)N1CCn2nc(-c3ccc4[nH]ccc4c3)c(-c3ccncc3)c2C1 [Example 193, 1-[2-(1H-indol-5-yl)-3-(pyridin-4-yl)-6,7-dihydropyrazolo[1,5-a]pyrazin-5(4H)-yl]prop-2-en-1-one] | 0.0456
20 | 0.000144 | 0.000399 | C=CC(=O)N1CCn2nc(-c3ccc4occc4c3)c(-c3ccncc3)c2C1 [Example 194, 1-[2-(1-benzofuran-5-yl)-3-(pyridin-4-yl)-6,7-dihydropyrazolo[1,5-a]pyrazin-5(4H)-yl]prop-2-en-1-one] | 0.0153
21 | 0.000183 | 0.000421 | CN(C)C/C=C/C(=O)N1CCn2nc(-c3ccc4sccc4c3)c(-c3ccncc3)c2C1 [Example 196, (2E)-1-[2-(1-benzothiophen-5-yl)-3-(pyridin-4-yl)-6,7-dihydropyrazolo[1,5-a]pyrazin-5(4H)-yl]-4-(dimethylamino)but-2-en-1-one] | 0.0404
22 | 0.00145 | 0.00801 | CN(C)C/C=C/C(=O)N1CCn2nc(-c3ccc4[nH]ccc4c3)c(-c3ccncc3)c2C1 [Example 197, (2E)-4-(dimethylamino)-1-[2-(1H-indol-5-yl)-3-(pyridin-4-yl)-6,7-dihydropyrazolo[1,5-a]pyrazin-5(4H)-yl]but-2-en-1-one] | 0.995
23 | 0.476 | 1.07 | CN(C)C/C=C/C(=O)N1CCn2nc(-c3ccc4nn[nH]c4c3)c(-c3ccncc3)c2C1 [Example 198, (2E)-1-[2-(1H-benzotriazol-6-yl)-3-(pyridin-4-yl)-6,7-dihydropyrazolo[1,5-a]pyrazin-5(4H)-yl]-4-(dimethylamino)but-2-en-1-one] | 6.39
24 | 0.000672 | 0.00205 | CN(C)C/C=C/C(=O)N1CCn2nc(-c3ccc4occc4c3)c(-c3ccncc3)c2C1 [Example 199, (2E)-1-[2-(1-benzofuran-5-yl)-3-(pyridin-4-yl)-6,7-dihydropyrazolo[1,5-a]pyrazin-5(4H)-yl]-4-(dimethylamino)but-2-en-1-one] | 0.132
